For series [1], the system named is M. tuberculosis H37Rv. As to the kind of experiment: microbe, parasite or virus in culture. The conditions noted are these: Mycobacterium tuberculosis, read-out: MIC, 7H9 Broth, H37Rv. The format is cell-based.
Series [2] concerns M. tuberculosis H37Rv. The series can be described thus: microbe, parasite or virus in culture. Format: cell-based.
Series [3] concerns M. tuberculosis HN878. As to the kind of experiment: microbe, parasite or virus in culture. The format is cell-based.
Series [4] concerns M. tuberculosis HN878. The series can be described thus: microbe, parasite or virus in culture. The format is cell-based. The source holds these as a separate data set.
Series [5] has as its system M. tuberculosis H37Rv. As to the kind of experiment: Pyrazinamide susceptibility by MGIT. The format is cell-based. As to conditions: Mycobacterium tuberculosis, susceptibility determined by MGIT, read-out: MIC, H37Rv (7H9 Broth).
In series [6] the test system is M. tuberculosis HN878. The series can be described thus: Pyrazinamide susceptibility by MGIT. Format: cell-based. The conditions noted are these: Mycobacterium tuberculosis, susceptibility determined by MGIT, read-out: MIC, HN878 (7H9 Broth).
Series [7] has as its system M. tuberculosis H37Rv. The format is in vivo, Mycobacterium tuberculosis.
The subject of series [8] is M. tuberculosis H37Rv. As to conditions: in vivo, 25 mg/kg; cited from earlier work.
In another series the test system is M. tuberculosis. The conditions noted are these: phase 2a study; cited from earlier work.
For series [9] the following is noted: plasma, week 4, Experiment 3, mean ± SD; for Concentration of Telacebec at steady state, 1h: 1 h post-dose; for Concentration of Telacebec at steady state, 5h: 5 h post-dose; for Concentration of Telacebec at steady state, 24h: 24 h post-dose. Here is the method: For S587 and its M3 metabolite, the mean concentrations were compared between mice administered S587 alone and mice administered S587 in combination with T 10 mg/kg (T10), T 50 mg/kg (T50), and T10 plus C. For T, the mean concentrations were compared between mice administered T10 alone and T10 in combination with S587 and S587 + C, as well as between mice administered T50 alone and T50 in combination with S587.
Multidose PK of T and TBAJ-587 in plasma was characterized in infected female BALB/c mice (Charles River Laboratories, Wilmington, MA) receiving oral doses once daily. In week 4 of treatment in Experiment 3, three mice per group per time point were sampled by submandibular bleed at 1, 5, and 24 hours post-dose. Drug concentrations were quantified by a validated high-performance liquid chromatography/mass spectrometry method (Alliance Pharma Inc, Devault, PA).

Setting [10] is: Mycobacterium tuberculosis, H37RV; read-out: MIC, 7H11 Agar, H37Rv.
[11] abbreviates: Mycobacterium tuberculosis, HN878; read-out: MIC, 7H11 Agar, HN878.
Setting [12] is: Mycobacterium tuberculosis, HN878; read-out: MIC, 7H9 Broth, HN878.

Converted amounts (≈) assume the structure as drawn. Where two headings read alike, the source gives them in different places.

As to `COc1nc2ccc(Br)cc2cc1[C@@H](c1ccccc1)[C@@](O)(CCN(C)C)c1cccc2ccccc12` [Bedaquiline, bedaquiline], the figures for the MIC in the series with M. tuberculosis H37Rv [1], in the series on M. tuberculosis H37Rv [2] (setting [10]) and in the series on M. tuberculosis HN878 [3] (setting [11]) were 0.25 µg/mL (≈ 0.45 µM), 0.03 µg/mL (≈ 0.054 µM) and 0.03 µg/mL (≈ 0.054 µM), respectively.
For the compound `CC(C)/N=c1\cc2n(-c3ccc(Cl)cc3)c3ccccc3nc-2cc1Nc1ccc(Cl)cc1` [Clofazimine, clofazimine], the MIC with M. tuberculosis H37Rv [2] (setting [10]) and in the series on M. tuberculosis HN878 [3] (setting [11]) was 0.25 µg/mL (≈ 0.528 µM) in each case.
Turning to `CC(=O)NC[C@H]1CN(c2ccc(N3CCOCC3)c(F)c2)C(=O)O1` [Linezolid, linezolid], the MIC with M. tuberculosis H37Rv [1] turned out to be 1 µg/mL (≈ 2.96 µM); in the series on M. tuberculosis HN878 [4] (setting [12]) it was 0.5 µg/mL (≈ 1.48 µM); in the series with M. tuberculosis H37Rv [2] (setting [10]), 0.5 µg/mL (≈ 1.48 µM).
For `COc1c(N2C[C@@H]3CCCN[C@@H]3C2)c(F)cc2c(=O)c(C(=O)O)cn(C3CC3)c12` [Moxifloxacin, moxifloxacin], the MIC in the series on M. tuberculosis H37Rv [1] is 0.5 µg/mL (≈ 1.25 µM); with M. tuberculosis HN878 [4] (setting [12]) it was 0.25 µg/mL (≈ 0.623 µM).
Take `O=[N+]([O-])c1cn2c(n1)OC[C@@H](OCc1ccc(OC(F)(F)F)cc1)C2` [Pretomanid, pretomanid]: the MIC in the series with M. tuberculosis H37Rv [1] is 0.125 µg/mL (≈ 0.348 µM); with M. tuberculosis HN878 [4] (setting [12]), 0.06 µg/mL (≈ 0.167 µM); in the series with M. tuberculosis H37Rv [2] (setting [10]) it was 0.06 µg/mL (≈ 0.167 µM); in the series on M. tuberculosis HN878 [3] (setting [11]), 0.125 µg/mL (≈ 0.348 µM).
Consider `NC(=O)c1cnccn1` [Pyrazinamide, pyrazinamide], for which the MIC in the series on M. tuberculosis H37Rv [5] and in the series on M. tuberculosis HN878 [6] was less than 100 µg/mL each time.
Consider `CO[C@H]1/C=C/O[C@@]2(C)Oc3c(C)c(O)c4c(O)c(c(/C=N/N5CCN(C)CC5)c(O)c4c3C2=O)NC(=O)/C(C)=C\C=C\[C@H](C)[C@H](O)[C@@H](C)[C@@H](O)[C@@H](C)[C@H](OC(C)=O)[C@@H]1C` [Rifampin], for which the MIC in the series on M. tuberculosis H37Rv [1] was 0.25 µg/mL (≈ 0.304 µM); in the series with M. tuberculosis HN878 [4] (Mycobacterium tuberculosis, HN878, read-out: MIC, 7H9 Broth, HN878), 0.25 µg/mL (≈ 0.304 µM).
Take `COc1ncnc(Cn2cc(C(=O)NCCO)c3ncc(C)cc32)c1C` [TBA-7371]: the MIC was 0.25 µg/mL (≈ 0.703 µM) in the series on M. tuberculosis H37Rv [2] (setting [10]) and 0.5 µg/mL (≈ 1.41 µM) in the series with M. tuberculosis HN878 [3] (setting [11]).
On to `COc1cc([C@](O)(CCN(C)C)[C@@H](c2cc3cc(Br)ccc3nc2OC)c2cccc(OC)c2F)cc(OC)n1` [TBAJ-587], for which the “mean (±SD) log10 CFU counts, W4” value in the series with M. tuberculosis H37Rv [7] (in vivo) is 3.40 ± 0.47 log10 CFU. Further, the “reduction of bacterial burden over 4 weeks” value with M. tuberculosis H37Rv [7] (in vivo, 12.5 mg/kg) is recorded as “more than 4 log10”. Moreover, the “reduction of lung CFU count over 4 weeks” value with M. tuberculosis H37Rv [8] is listed as “approximately 5 log10”. For the same compound, the MIC in the series on M. tuberculosis H37Rv [2] (Mycobacterium tuberculosis, H37RV, read-out: MIC, 7H11 Agar, H37Rv) was 0.008 µg/mL (≈ 0.013 µM); with M. tuberculosis HN878 [3] (Mycobacterium tuberculosis, HN878, read-out: MIC, 7H11 Agar, HN878) it was 0.004 µg/mL (≈ 0.00651 µM).
Turning to `COc1cc([C@](O)(CCN(C)C)[C@@H](c2cc3cc(Br)ccc3nc2OC)c2cc(OC)nc(OC)c2OC)cc(OC)n1` [TBAJ-876], the “reduction of CFU counts over 4 weeks compared to D0” value with M. tuberculosis H37Rv [7] (Experiment 2, S876 6.25 mg/kg, 4 weeks) is on record as “more than 3.5 log10”. Moreover, in the series with M. tuberculosis H37Rv [7] (Experiment 2, lungs, 4 weeks of treatment, doses mg/kg/dose as subscripts, bid = twice daily, D0 7.51 ± 0.06, lower limit of detection 1.66 log10), the “mean (±SD) log10 CFU counts, W4” value amounted to 3.74 ± 0.44 log10 CFU. The MIC in the series with M. tuberculosis H37Rv [2] (setting [10]) was 0.002 to 0.004 µg/mL (≈ 0.00304 to 0.00608 µM); in the series with M. tuberculosis HN878 [3] (setting [11]), 0.004 µg/mL (≈ 0.00608 µM).
For the compound `CCc1nc2ccc(Cl)cn2c1C(=O)NCc1ccc(N2CCC(c3ccc(OC(F)(F)F)cc3)CC2)cc1` [Telacebec, telacebec], the “effect of single drug treatment on lung CFU counts compared to D0” value with M. tuberculosis H37Rv [7] (Experiment 3, T at 10 and 50 mg/kg, 4 weeks, no dose-response) is “bacteriostatic”. For the same compound, the “mean (±SD) log10 CFU counts, W4” value with M. tuberculosis H37Rv [7] (Experiment 3, lungs, 4 weeks of treatment, T at 10 mg/kg where given, S587 12.5, C 12.5, Z 150 mg/kg, D0 7.52 ± 0.13) turned out to be 7.65 ± 0.05 log10 CFU; in the series on M. tuberculosis H37Rv [7] (Experiment 3, lungs, 4 weeks of treatment, T at 50 mg/kg, S587 12.5 mg/kg, D0 7.52 ± 0.13), 7.70 ± 0.06 log10 CFU. In addition, the “early bactericidal activity in TB patients” value in the series on M. tuberculosis is recorded as “dose-dependent early bactericidal activity”. The MIC in the series on M. tuberculosis H37Rv [2] (Mycobacterium tuberculosis, 432 h; parental H37Rv strain; agar proportion method; […]; read-out: MIC) is 0.008 µg/mL (≈ 0.0144 µM); in the series on M. tuberculosis H37Rv [2] (setting [10]), 0.008 µg/mL (≈ 0.0144 µM); in the series on M. tuberculosis HN878 [3] (setting [11]), 0.002 µg/mL (≈ 0.00359 µM). Further, the figures for the “Concentration of Telacebec at steady state, 1h” value in series [9] (T 10 mg/kg) and in series [9] (T 50 mg/kg) were 1462 ± 435 ng/mL and 2642 ± 1857 ng/mL, respectively. Moreover, the figures for the “Concentration of Telacebec at steady state, 5h” value in series [9] (T 10 mg/kg) and in series [9] (T 50 mg/kg) were 2265 ± 102 ng/mL and 7310 ± 3990 ng/mL, respectively. Moreover, the “Concentration of Telacebec at steady state, 24h” value worked out at 921 ± 337 ng/mL in series [9] (T 10 mg/kg) and 3008 ± 330 ng/mL in [9] (T 50 mg/kg).

The record behind these values is paper PMC11838007, “Contribution of telacebec to novel drug regimens in a murine tuberculosis model” (Antimicrobial Agents and Chemotherapy, 2024).
